In US11780830B2, “Triazolone derivatives or salts thereof and pharmaceutical compositions comprising the same” (YUHAN CORPORATION, priority 2018, dated 2023) one finds IC50 data, which are given here for 10 compounds.

Structures are written as SMILES. Counter-ions that a name gives are not always drawn.

Holding throughout (format): biochemical
In assay [1] the target is T1, recombinant human DAO (diamine oxidase) (Homo sapiens, UniProt P19801).
T1 construct: purchased R&D systems
T1 sequence (P19801 20-751): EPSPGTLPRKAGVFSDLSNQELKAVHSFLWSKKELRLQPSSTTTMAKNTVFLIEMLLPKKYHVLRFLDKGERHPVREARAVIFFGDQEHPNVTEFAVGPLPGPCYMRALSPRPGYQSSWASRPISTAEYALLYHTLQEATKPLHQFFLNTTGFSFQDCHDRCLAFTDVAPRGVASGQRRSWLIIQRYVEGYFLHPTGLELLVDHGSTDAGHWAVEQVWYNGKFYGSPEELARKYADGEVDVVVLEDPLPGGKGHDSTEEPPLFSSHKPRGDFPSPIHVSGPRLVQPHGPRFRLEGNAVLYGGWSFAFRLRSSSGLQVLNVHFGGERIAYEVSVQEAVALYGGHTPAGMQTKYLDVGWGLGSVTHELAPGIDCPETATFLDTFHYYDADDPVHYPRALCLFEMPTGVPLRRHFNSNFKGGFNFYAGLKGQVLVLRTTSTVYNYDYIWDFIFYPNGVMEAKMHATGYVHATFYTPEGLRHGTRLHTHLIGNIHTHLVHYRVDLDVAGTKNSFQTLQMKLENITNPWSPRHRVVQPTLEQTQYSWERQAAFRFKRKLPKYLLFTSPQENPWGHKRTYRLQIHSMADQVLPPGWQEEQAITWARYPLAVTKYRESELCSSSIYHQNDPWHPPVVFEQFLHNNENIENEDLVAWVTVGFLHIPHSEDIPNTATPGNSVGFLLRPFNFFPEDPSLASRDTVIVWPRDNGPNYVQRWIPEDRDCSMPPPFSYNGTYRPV
The assay can be described thus: Activity on recombinant human DAO, method similar to the VAP-1 assay. The settings on record: substrate 1 mM putrescine; read-out: Inhibitory Activity (IC50, nM) DAO. Put shortly:
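Inhibition of recombinant human diamine oxidase (DAO, R&D systems) was assessed by the same approach as the VAP-1 assay, using 1 mM putrescine as substrate. Hydrogen peroxide formed was detected through an HRP-coupled Amplex Red reaction yielding fluorescent resorufin, read at 544 nm excitation and 590 nm emission. IC50 values came from four-parameter logistic fitting in GraphPad Prism.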

The target in the next assay is T2, recombinant human VAP-1 (Homo sapiens, UniProt Q16853).
T2 construct: purchased R&D systems
T2 sequence (Q16853 1-763): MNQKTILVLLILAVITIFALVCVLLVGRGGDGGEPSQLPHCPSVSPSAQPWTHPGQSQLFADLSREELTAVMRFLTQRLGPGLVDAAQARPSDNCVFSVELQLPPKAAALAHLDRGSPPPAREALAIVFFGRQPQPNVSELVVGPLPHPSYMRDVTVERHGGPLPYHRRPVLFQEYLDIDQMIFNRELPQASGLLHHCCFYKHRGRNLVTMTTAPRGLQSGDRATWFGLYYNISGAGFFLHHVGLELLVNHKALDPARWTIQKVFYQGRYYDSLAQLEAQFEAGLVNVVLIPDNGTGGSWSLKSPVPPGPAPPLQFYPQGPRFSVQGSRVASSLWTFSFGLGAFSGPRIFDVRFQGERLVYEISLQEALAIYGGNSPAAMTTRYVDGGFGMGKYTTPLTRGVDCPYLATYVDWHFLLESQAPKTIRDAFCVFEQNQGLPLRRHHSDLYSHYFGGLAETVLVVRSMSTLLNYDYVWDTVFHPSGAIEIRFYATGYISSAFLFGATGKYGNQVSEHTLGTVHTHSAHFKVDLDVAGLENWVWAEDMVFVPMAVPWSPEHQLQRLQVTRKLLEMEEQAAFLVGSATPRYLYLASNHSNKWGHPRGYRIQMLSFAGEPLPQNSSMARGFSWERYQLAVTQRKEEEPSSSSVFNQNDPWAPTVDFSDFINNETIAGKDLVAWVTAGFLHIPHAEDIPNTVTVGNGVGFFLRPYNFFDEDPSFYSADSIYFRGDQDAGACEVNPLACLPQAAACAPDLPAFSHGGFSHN
Nature of the assay: Activity on recombinant human VAP-1, HRP-coupled Amplex Red hydrogen peroxide assay. As to conditions: substrate 1 mM benzylamine; compound incubated with enzyme at 37° C. for 30 minutes; pH 7.4; read-out: Inhibitory Activity (IC50, nM) human VAP-1. Put shortly: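 Dose-response IC50 determined from reduction in resorufin signal rate (544/590 nm, 1-2 h), with 30 min compound preincubation at 37 °C and 1 mM benzylamine as substrate.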

Assay [2] deals with T3, recombinant human MAO-A (monoamine oxidase-A) (Homo sapiens, UniProt P21397).
T3 construct: purchased Sigma-Aldrich
T3 sequence (P21397 1-527): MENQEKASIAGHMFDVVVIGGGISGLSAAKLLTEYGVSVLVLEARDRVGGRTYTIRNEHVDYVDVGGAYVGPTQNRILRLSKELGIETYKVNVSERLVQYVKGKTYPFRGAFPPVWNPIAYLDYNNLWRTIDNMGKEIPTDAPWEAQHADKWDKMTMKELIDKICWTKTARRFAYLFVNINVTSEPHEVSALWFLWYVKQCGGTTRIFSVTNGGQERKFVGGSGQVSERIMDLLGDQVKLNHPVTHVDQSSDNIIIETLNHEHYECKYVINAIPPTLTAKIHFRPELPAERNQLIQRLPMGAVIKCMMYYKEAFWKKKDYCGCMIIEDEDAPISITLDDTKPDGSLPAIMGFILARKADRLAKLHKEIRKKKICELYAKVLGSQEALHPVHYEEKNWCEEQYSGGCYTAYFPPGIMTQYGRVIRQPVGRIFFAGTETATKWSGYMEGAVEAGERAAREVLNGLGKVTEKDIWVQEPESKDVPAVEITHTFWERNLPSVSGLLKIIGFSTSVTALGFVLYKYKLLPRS
Nature of the assay: Activity on recombinant human MAO-A, method similar to the VAP-1 assay. The settings on record: substrate 0.5 mM tyramine; read-out: Inhibitory Activity (IC50, nM) MAO-A. In short, it runs like this:
(§1)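 Amplex Red/HRP coupled read-out of H2O2 with 0.5 mM tyramine for MAO-A or 1 mM benzylamine for MAO-B, following a 30-min compound–enzyme preincubation at 37° C. IC50 from percent inhibition of signal rate relative to uninhibited control.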

The target of assay [3] is T4, recombinant human MAO-B (monoamine oxidase-B) (Homo sapiens, UniProt P27338).
T4 construct: purchased Sigma-Aldrich
T4 sequence (P27338 1-520): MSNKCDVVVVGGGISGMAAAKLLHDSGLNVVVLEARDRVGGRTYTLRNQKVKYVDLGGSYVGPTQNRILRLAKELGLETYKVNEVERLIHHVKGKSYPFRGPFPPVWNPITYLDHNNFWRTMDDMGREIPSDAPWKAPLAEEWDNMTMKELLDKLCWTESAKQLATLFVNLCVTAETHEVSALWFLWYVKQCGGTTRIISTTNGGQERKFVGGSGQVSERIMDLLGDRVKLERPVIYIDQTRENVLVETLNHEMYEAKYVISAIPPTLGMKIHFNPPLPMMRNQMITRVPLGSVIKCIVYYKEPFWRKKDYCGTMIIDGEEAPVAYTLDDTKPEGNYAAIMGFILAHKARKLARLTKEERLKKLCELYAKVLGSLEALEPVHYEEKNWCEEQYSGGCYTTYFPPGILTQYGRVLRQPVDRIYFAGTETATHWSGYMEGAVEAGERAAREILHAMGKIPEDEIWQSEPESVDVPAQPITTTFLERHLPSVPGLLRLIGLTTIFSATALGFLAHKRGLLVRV
The assay can be described thus: Activity on recombinant human MAO-B, method similar to the VAP-1 assay. As to conditions: substrate 1 mM benzylamine; read-out: Inhibitory Activity (IC50, nM) MAO-B. In short, it runs like this:
as §1

Usually IC50 stands for the concentration that inhibits the measured activity by half. `CN1CCOc2cc(-c3ccc(Cn4cnn(C/C(=C/F)CN)c4=O)s3)ccc21` [Example 103, 2-[(2E)-2-(aminomethyl)-3-fluoroprop-2-en-1-yl]-4-[5-(4-methyl-3,4-dihydro-2H-1,4-benzoxazin-7-yl)thiophen-2-yl]methyl-2,4-dihydro-3H-1,2,4-triazol-3-one hydrochloride]: the IC50 in assay [1] turned out to be 1100 nM; on recombinant human VAP-1, 3.2 nM; in assay [2], 15000 nM; in assay [3] it was 1500 nM.

`NC/C(=C\F)Cn1ncn(CCc2ccc(-c3ccc4c(c3)OCO4)s2)c1=O` [Example 215, 2-[(2E)-2-(aminomethyl)-3-fluoroprop-2-en-1-yl]-4-{2-[5-(1,3-benzodioxol-5-yl)thiophen-2-yl]ethyl}-2,4-dihydro-3H-1,2,4-triazol-3-one]: the IC50 in assay [1] is 380 nM; at recombinant human VAP-1 it was 1.3 nM; in assay [2], > 100000 nM; in assay [3] it was 310 nM.

In the case of `NC/C(=C\F)Cn1ncn(Cc2ccc(-c3ccc(C(=O)N4CCOCC4)cc3)s2)c1=O` [Example 27, 2-[(2E)-2-(aminomethyl)-3-fluoroprop-2-en-1-yl]-4-(5-[4-(morpholin-4-ylcarbonyl)phenyl]thiophen-2-ylmethyl)-2,4-dihydro-3H-1,2,4-triazol-3-one hydrochloride], the IC50 in assay [1] was 470 nM; on recombinant human VAP-1, 1.1 nM; in assay [2], > 100000 nM; in assay [3], 18000 nM.

For `COc1cc(-c2ccc(Cn3cnn(C/C(=C/F)CN)c3=O)s2)cnc1OC` [Example 178, 2-[(2E)-2-(aminomethyl)-3-fluoroprop-2-en-1-yl]-4-{[5-(5,6-dimethoxypyridin-3-yl)thiophen-2-yl]methyl}-2,4-dihydro-3H-1,2,4-triazol-3-one], the IC50 in assay [1] is 280 nM; at recombinant human VAP-1, 0.8 nM; in assay [2] it was > 100000 nM; in assay [3] it was 700 nM.

As for `CC(C)(C)NS(=O)(=O)c1cncc(-c2ccc(Cn3cnn(C/C(=C/F)CN)c3=O)s2)c1` [Example 43, 5-[5-(1-[(2E)-2-(aminomethyl)-3-fluoroprop-2-en-1-yl]-5-oxo-1,5-dihydro-4H-1,2,4-triazol-4-ylmethyl)thiophen-2-yl]-N-tert-butylpyridin-3-sulfonamide hydrochloride], the IC50 in assay [1] is 110 nM; at recombinant human VAP-1 it was 4.1 nM; in assay [2] it was > 100000 nM; in assay [3] it was > 10000 nM.

In the case of `NC/C(=C\F)Cn1ncn(Cc2ccc(-c3cc4c(cc3F)NC(=O)CC4)s2)c1=O` [Example 146, 6-[5-({1-[(2E)-2-(aminomethyl)-3-fluoroprop-2-en-1-yl]-5-oxo-1,5-dihydro-4H-1,2,4-triazol-4-yl}methyl)thiophen-2-yl]-7-fluoro-3,4-dihydroquinolin-2(1H)-one], the IC50 in assay [1] was 1300 nM; at recombinant human VAP-1, 0.4 nM; in assay [2] it was > 100000 nM; in assay [3] it was 3900 nM.

Regarding `Cc1cc(-c2ccc(Cn3cnn(C/C(=C/F)CN)c3=O)s2)cc2ccc(=O)[nH]c12` [Example 78, 6-[5-[[1-[(E)-2-(aminomethyl)-3-fluoro-allyl]-5-oxo-1,2,4-triazol-4-yl]methyl]-2-thienyl]-8-methyl-1H-quinolin-2-one], the IC50 in assay [1] is 630 nM; at recombinant human VAP-1, 0.2 nM; in assay [2], > 100000 nM; in assay [3], 4800 nM.

For the compound `CN1CCNc2cc(-c3ccc(Cn4cnn(C/C(=C/F)CN)c4=O)s3)ccc21` [Example 104, 2-[(E)-2-(aminomethyl)-3-fluoro-allyl]-4-[[5-(1-methyl-3,4-dihydro-2H-quinoxalin-6-yl)-2-thienyl]methyl]-1,2,4-triazol-3-one], the IC50 in assay [1] worked out at 390 nM; on recombinant human VAP-1 it was 1.1 nM; in assay [2] it was 4000 nM; in assay [3] it was 1200 nM.

For the compound `NC/C(=C\F)Cn1ncn(Cc2ccc(-c3ccc(OCC(F)(F)F)nc3)s2)c1=O` [Example 47, 2-[(2E)-2-(aminomethyl)-3-fluoroprop-2-en-1-yl]-4-(5-[6-(2,2,2-trifluoroethoxy)pyridin-3-yl]thiophen-2-ylmethyl)-2,4-dihydro-3H-1,2,4-triazol-3-one hydrochloride], the IC50 in assay [1] was 530 nM; at recombinant human VAP-1 it was 4.7 nM; in assay [2], > 100000 nM; in assay [3] it was 980 nM.

For `CC1Oc2ccc(-c3ccc(Cn4cnn(C/C(=C/F)CN)c4=O)s3)cc2NC1=O` (stereo not shown) [Example 97, 6-[5-[[1-[(E)-2-(aminomethyl)-3-fluoro-allyl]-5-oxo-1,2,4-triazol-4-yl]methyl]-2-thienyl]-2-methyl-4H-1,4-benzoxazin-3-one hydrochloride], the IC50 in assay [1] is 230 nM; at recombinant human VAP-1, 0.4 nM; in assay [2] it was 28000 nM; in assay [3], 380 nM.
